In ChEMBL document CHEMBL1145364, “A novel artemisinin-quinine hybrid with potent antimalarial activity” (Bioorg Med Chem Lett, 2007):

Key:
Assay type in all cases: functional, organism-based
Plasmodium falciparum [1] = assay: Antimalarial activity against Plasmodium falciparum 3D7 after 72 hrs by pLDH assay; settings: 3D7, 72 h
Plasmodium falciparum [2] = assay: Antimalarial activity against chloroquine-resistant Plasmodium falciparum FcB1 after 48 hrs by pLDH assay; settings: FcB1, 48 h
Plasmodium falciparum [3] = assay: Antimalarial activity against chloroquine-resistant Plasmodium falciparum FcB1 after 72 hrs by pLDH assay; settings: FcB1, 72 h
Plasmodium falciparum [4] = assay: Antimalarial activity against Plasmodium falciparum 3D7 after 48 hrs by pLDH assay; settings: 3D7, 48 h

Row | Structure (SMILES) | IC50 (Plasmodium falciparum [1]) [µM] | IC50 (Plasmodium falciparum [2]) [µM] | IC50 (Plasmodium falciparum [3]) [µM] | IC50 (Plasmodium falciparum [4]) [µM]
1 | C[C@@H]1CC[C@H]2[C@@H](C)C(=O)O[C@@H]3O[C@@]4(C)CC[C@@H]1[C@]32OO4 [ARTEMISININ] | 0.0455 | 0.05 | 0.055 | 0.0494
2 | COc1ccc2nccc([C@@H](O)C3CC4CCN3CC4CC(=O)O[C@@H]3OC4O[C@]5(C)CCC6[C@H](C)CCC([C@H]3C)[C@@]46OO5)c2c1 (some centres not stated) | 0.0104 | 0.00959 | 0.0102 | 0.00895
3 | C=C[C@H]1CN2CC[C@H]1C[C@H]2[C@H](O)c1ccnc2ccc(OC)cc12 [QUININE] | 0.0735 | 0.0968 | 0.0753 | 0.149
